{"source": "patent EP4467141A1", "about": "“PYRAZOLO-QUINOLINES AS SELECTIVE INHIBITORS OF GENOTOXIC STRESS-INDUCED IKK/NF- KB PATHWAYS FOR CANCER THERAPY” (Max-Delbrück-Centrum für Molekulare Medizin in der …, priority 2023, dated 2024)", "test_system": "IKKγ", "assay": "IKKγ phosphorylation (S85) and mono-ubiquitination after irradiation (immunoprecipitation / Western blot)", "format": "cell-based", "settings": "irradiation (IR, 20 Gy); 1 hour pre-treatment", "experimental": "Fig.7: (A) Immunoprecipitation of IKKγ from HEK293 lysates pre-treated for 1 hour with DMSO, MW01 or MW05, then irradiated (IR, 20 Gy) and lysed. (B) Western blot analysis of MEF cells pre-treated with DMSO, MW01, MW05 or ATM inhibitor KU55933 and irradiated (IR, 20 Gy). Lysates were subjected to SDS-PAGE/WB. The specific IKKγ S85 band (lower band) was identified by induction following irradiation and by sensitivity to ATMi and λ- phosphatase (λ-PP) treatment. (C) Western blot analysis of U2os cells pre-treated for 1 hour with the indicated substances, irradiated (IR, 20 Gy) and whole cell lysates probed for poly(ADP)-ribose. (D) Western blot analysis of cytoplasmic and nuclear fractions from U2-OS cells for p-ATM (S 1981), after 1 hour pre-treatment with DMSO, MW01 (10 µM), or MW05 (10 µM) and 45 min following irradiation (IR, 20 Gy). PARP1 and LDHA are used as loading controls for nuclear and cytoplasmic fractions respectively. […]\nTo identify inhibitors that selectively prevent DNA damage-induced NF-κB activation, we established a high-throughput screening platform quantifying p65 nuclear translocation, an essential step in NF-κB activation (Hayden and Ghosh, 2008). […] The IC50s of p65 nuclear translocation following both stimuli were determined for 21 compounds. […]"}
{"smiles": "COc1ccc2c(c1OC)c(=O)n1c3ccc(O)cc3c3ccnc2c31", "note": "[MW01, 5-Hydroxy-10,11-dimethoxy-9H-benzo[c]indolo[3,2,1-ij][1,5]naphthyridin-9-one]", "values": [{"measurement": "IR-induced IKKy phosphorylation and mono-ubiquitination", "value": "inhibited"}]}
{"smiles": "COc1ccc2cc3c(N)nn(C(=O)c4cccc(N(C)C)c4)c3nc2c1", "note": "[MW05, (3-Amino-7-methoxypyrazolo[3,4-b]quinolin-1-yl)-[3-(dimethylamino)phenyl]methanone]", "values": [{"measurement": "IR-induced IKKy phosphorylation and mono-ubiquitination", "value": "inhibited"}]}
